Laboratory results reported in US20140128605A1, “CRYSTALS OF GLYCINE DERIVATIVE AND PHARMACEUTICAL USE THEREOF” (Toray Industries, Inc., priority 2011, published 2014).
Blank lines part the entries; values can stand above or below the compound they belong to.

How the values were obtained:
Format in all cases: physicochemical
[1] = Evaluation of solid-state stability (60° C., four weeks, air-tightly); conditions: for Purity [%] Initial value / Purity [%] After 4 weeks: HPLC; for Purity [%] Initial value: before storage; for Purity [%] After 4 weeks / Decomposition product increased by not less than 0.15% after 4 weeks / Crystal form after 4 weeks: stored air-tightly at 60° C. for four weeks; for Crystal form after 4 weeks: powder X-ray diffraction and TG-DTA
Method: The amorphous form, and the crystals of Form A, Form B, Form C, Form D and Form E (hydrate) of the subject compound were stored air-tightly at 60° C. for four weeks, and the purities thereof before and after the storage were measured by high performance liquid chromatography (hereinafter referred to as “HPLC”) under the following conditions. The powder X-ray diffraction measurement and TG-DTA were carried out to evaluate whether the crystal forms were changed or not due to the storage. Aqueous sodium dihydrogen phosphate solution in a concentration of 20 mmol/L (hereinafter referred to as “aqueous SDP solution”) used to prepare a mobile phase of HPLC was prepared by adding distilled water (3 L) to weighed sodium dihydrogen phosphate dihydrate (9.36 g) and stirring the resulting solution to dissolve the dihydrate. An analytical sample of HPLC was prepared by weighing and adding each crystal (1.75 mg) of the subject compound to a 10-mL measuring flask respectively; adding acetonitrile (2 mL) thereto to dissolve the crystal; and then adding aqueous SDP solution thereto to a total volume of 10 mL.
• Detection Wavelength: 210 nm • Column: YMC-Pack Pro C18 AS-303 • Mobile Phase A: aqueous SDP solution/acetonitrile=80:20 (v/v) • Mobile Phase B: acetonitrile/aqueous SDP solution=70:30 (v/v) • Composition of Mobile Phase B: 0 to 60 minutes: 0→100% • 60 to 65 minutes: 100%, • 65 to 66 minutes: 100→0%, • 66 to 75 minutes: 0% • Flow rate: 1.0 mL/min • Column Temperature: 40° C. • Amount of Injected Sample: 20 μL

[2] = Evaluation of moisture absorption (equilibrium moisture regain); conditions: for Weight increase: relative humidity increased from 5% to 95%, 25° C.
Method: • Sample Amount: 5 to 12 mg • Measuring Temperature: 25° C. • Equilibrium Weight/time: 0.01 wt %/5 minutes • Maximum Equilibration Time: 180 minutes • Measurement Range: 5% relative humidity-95% relative humidity-5% relative humidity • Measurement Interval: 5% relative humidity
To evaluate whether the crystal form changes or not, the powder X-ray diffraction measurement was carried out for each crystal of Form A, Form B, Form C, Form D and Form E (hydrate) obtained after the evaluation test of moisture absorption. Only for the Form A crystal, the measurement range (2θ) of the powder X-ray diffraction measurement was changed to 2 to 35°, and the measurement was carried out at 25° C., 90% relative humidity. A humidity generator (HUM-1A; manufactured by Rigaku) was used to control humidity.

[3] = Crystal form after milling (powder X-ray diffraction, TG-DTA); conditions: pin milled and jet milled products
[4] = Storage stability test (accelerated testing) of Form C crystal; conditions: 40° C., 75% relative humidity; for Purity [%] Initial value: HPLC, before storage, 6 months column
Method: The Form C crystals of the subject compound were stored under acceleration conditions (40° C., 75% relative humidity) air-tightly or under open conditions for six months, and the purities of the crystals before and after the storage were measured by HPLC under conditions below. The powder X-ray diffraction measurement and TG-DTA were carried out to evaluate whether the crystal form was changed or not due to storage.
Phosphate buffer in a concentration of 20 mmol/L (pH 3.9) (hereinafter referred to as “Buffer X”) used to prepare a mobile phase of HPLC was prepared by adding 20 mmol/L of aqueous phosphoric acid solution to 20 mmol/L of aqueous potassium dihydrogen phosphate solution. 20 mmol/L of the aqueous potassium dihydrogen phosphate solution was prepared by adding the weighed potassium dihydrogen phosphate (8.2 g) to distilled water (3 L), and stirring the resulting solution to dissolve the phosphate, and 20 mmol/L of the aqueous phosphoric acid solution was prepared by adding phosphoric acid (1.4 mL) to distilled water (1 L), and mixing the resulting solution under stirring.
Phosphate buffer in a concentration of 20 mmol/L (pH 7.0) (hereinafter referred to as “Buffer Y”) used to prepare an analytical sample of HPLC was prepared by adding 20 mmol/L of aqueous phosphoric acid solution to 20 mmol/L of aqueous dipotassium hydrogen phosphate solution. 20 mmol/L of aqueous dipotassium hydrogen phosphate solution was prepared by adding the weighed dipotassium hydrogen phosphate (3.5 g) to distilled water (1 L), and stirring the resulting solution.
Further, the analytical sample of HPLC was prepared by weighing and adding the Form C crystals of the subject compound (10 mg) to a 50-mL measuring flask, and adding a mixture of Buffer Y and acetonitrile at a ratio of 80:20 to a total amount of 50 mL.
• Detection Wavelength: 210 nm • Column: YMC-Pack Pro C18 • AS12S05-2546WT • Mobile Phase A: buffer X/acetonitrile=80:20 (v/v) • Mobile Phase B: acetonitrile/buffer X=70:30 (v/v) • Composition of Mobile Phase B: 0 to 80 minutes: 0→100% • 80 to 85 minutes: 100% • 85 to 86 minutes: 100→0% • 86 to 95 minutes: 0% • Flow Rate: 1.0 mL/min • Column Temperature: 40° C. • Amount of Injected Sample: 20 μL

[5] = Physical stability of crystal form in solvents; conditions: solvents (e.g., toluene, methanol, 2-propanol)

SMILES: CN(c1ccc(/C=C/C[C@H](NC(=O)c2c(Cl)cccc2Cl)C(=O)O)cc1)c1ncccn1 [Form B, (S,E)-2-(2,6-dichlorobenzamido)-5-[4-(methyl-pyrimidin-2-ylamino)phenyl]pent-4-enoic acid]
Purity [%] Initial value [1]: 99.8%
Purity [%] After 4 weeks [1]: 99.8%
Decomposition product increased by not less than 0.15% after 4 weeks [1]: nothing
Crystal form after 4 weeks [1]: Form B
Weight increase [2]: 1.9%

SMILES: CN(c1ccc(/C=C/C[C@H](NC(=O)c2c(Cl)cccc2Cl)C(=O)O)cc1)c1ncccn1 [Form C, (S,E)-2-(2,6-dichlorobenzamido)-5-[4-(methyl-pyrimidin-2-ylamino)phenyl]pent-4-enoic acid]
Change in the crystal form due to milling [3]: no change in the crystal form
Crystal form after 6 months ([4]; air-tightly): Form C
Decomposition product increased by not less than 0.15% after 6 months ([4]; air-tightly): Nothing
Purity [%] After 6 months ([4]; air-tightly): 99.5%
Crystal form after 6 months ([4]; open condition): Form C
Decomposition product increased by not less than 0.15% after 6 months ([4]; open condition): Nothing
Purity [%] After 6 months ([4]; open condition): 99.4%
Purity [%] Initial value ([4]; air-tightly): 99.5%
Purity [%] Initial value ([4]; open condition): 99.5%
Purity [%] Initial value [1]: 98.9%
Purity [%] After 4 weeks [1]: 98.9%
Decomposition product increased by not less than 0.15% after 4 weeks [1]: nothing
Crystal form after 4 weeks [1]: Form C
Transfer of crystal form in solvents [5]: not transferred to the another form

SMILES: CN(c1ccc(/C=C/C[C@H](NC(=O)c2c(Cl)cccc2Cl)C(=O)O)cc1)c1ncccn1 [Amorphous, (S,E)-2-(2,6-dichlorobenzamido)-5-[4-(methyl-pyrimidin-2-ylamino)phenyl]pent-4-enoic acid]
Purity [%] Initial value [1]: 95.8%
Purity [%] After 4 weeks [1]: 92.0%
Decomposition product increased by not less than 0.15% after 4 weeks [1]: 8 different
Crystal form after 4 weeks [1]: Amorphous

SMILES: CN(c1ccc(/C=C/C[C@H](NC(=O)c2c(Cl)cccc2Cl)C(=O)O)cc1)c1ncccn1 [Form A, (S,E)-2-(2,6-dichlorobenzamido)-5-[4-(methyl-pyrimidin-2-ylamino)phenyl]pent-4-enoic acid]
Purity [%] Initial value [1]: 97.3%
Purity [%] After 4 weeks [1]: 97.5%
Decomposition product increased by not less than 0.15% after 4 weeks [1]: nothing
Crystal form after 4 weeks [1]: Form B
Change in crystal form ([2]; powder X-ray diffraction after the moisture absorption test): changed^2)
Weight increase [2]: 3.4%

Next, values leading:

Purity [%] Initial value [1]: 96.6%
Purity [%] After 4 weeks [1]: 96.9%
Decomposition product increased by not less than 0.15% after 4 weeks [1]: nothing
Crystal form after 4 weeks [1]: Form E
Weight increase [2]: 0.4%
SMILES: CN(c1ccc(/C=C/C[C@H](NC(=O)c2c(Cl)cccc2Cl)C(=O)O)cc1)c1ncccn1 [Form E, (S,E)-2-(2,6-dichlorobenzamido)-5-[4-(methyl-pyrimidin-2-ylamino)phenyl]pent-4-enoic acid]

Purity [%] Initial value [1]: 98.0%
Purity [%] After 4 weeks [1]: 98.0%
Decomposition product increased by not less than 0.15% after 4 weeks [1]: nothing
Crystal form after 4 weeks [1]: Mixed crystals^2)
Weight increase [2]: 1.0%
SMILES: CN(c1ccc(/C=C/C[C@H](NC(=O)c2c(Cl)cccc2Cl)C(=O)O)cc1)c1ncccn1 [Form D, (S,E)-2-(2,6-dichlorobenzamido)-5-[4-(methyl-pyrimidin-2-ylamino)phenyl]pent-4-enoic acid]
